From ChEMBL document CHEMBL1139202, “Inhibition of mycobacterial arylamine N-acetyltransferase contributes to anti-mycobacterial activity of Warburgia salutaris” (Bioorg Med Chem, 2007)
The source made the active and inactive calls. The calls are words filed in the database; no cut-off is given here.

Experiments:
[1] = target: T1, Arylamine N-acetyltransferase (Mycolicibacterium smegmatis, UniProt O86309); experiment: Inhibition of Mycobacterium smegmatis recombinant NAT expressed in Escherichia coli BL21 at 0.5 mg/mL
T1 sequence (O86309 whole entry): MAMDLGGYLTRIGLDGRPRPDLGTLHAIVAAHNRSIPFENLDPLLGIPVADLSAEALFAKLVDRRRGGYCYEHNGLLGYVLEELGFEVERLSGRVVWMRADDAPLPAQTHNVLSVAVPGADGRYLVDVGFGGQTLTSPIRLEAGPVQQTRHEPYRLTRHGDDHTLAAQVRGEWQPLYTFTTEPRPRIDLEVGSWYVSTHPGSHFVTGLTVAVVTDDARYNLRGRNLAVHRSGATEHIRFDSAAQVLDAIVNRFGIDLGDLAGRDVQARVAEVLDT

[2] = system: Mycobacterium tuberculosis; experiment: Growth inhibition of Mycobacterium tuberculosis H37Rv at 0.05 ug/mL after 21 days; type: functional, organism-based

SMILES	inhibition at 500 µg/mL [1]	Activity [2]
CC(=O)O[C@@H]1C=C2C(=O)O[C@@H](O)[C@]2(O)[C@@]2(C)CCCC(C)(C)[C@H]12	35%	
NNC(=O)c1ccncc1		Active
